Data taken from publication PMC9266797 (2022).

Experiments:
[1] = test system: poly dAdT–poly dAdT (DNA, polymer) AT; assay: DAPI displacement by CD (ICD at 375 nm); details: Na+ (sodium cacodylate, I = 0.05 M), pH 7.0, DAPI displaced; for IDA50%: ratio [DAPI]/[compound], range printed for 6 and 7 together
[2] = test system: poly dAdT–poly dAdT (DNA, polymer) AT; assay: UV melting at 260 nm; details: Na+ (sodium cacodylate, I = 0.05 M); pH 7.0; DNA 25 µM; no Cu2+; per base
[3] = test system: poly A–poly U (RNA, polymer) A/U; assay: fluorimetric titration, Scatchard fit; details: Na+ (sodium cacodylate, I = 0.05 M), n fixed at 0.2 per nucleobase, per base
[4] = test system: poly A–poly U (RNA, polymer) A/U; assay: UV melting at 260 nm; details: Na+ (sodium cacodylate, I = 0.05 M); pH 7.0; RNA 25 µM, r = 0.25; no Cu2+; per base
[5] = test system: poly dAdT–poly dAdT (DNA, polymer) AT; assay: CD (induced band at 375 nm); details: Na+ (sodium cacodylate, I = 0.05 M); pH 7.0; DNA 20 µM, r[DAPI]/[DNA] = 0.6

IDA50% [1] | ∆Tm [2] [°C] | log Ks ([3]; pH 7.0, 0.04% DMSO, 1 µM compound) | ∆Tm [4] [°C] | binding ([1]; very weakly) | log Ks ([3]; pH 7.0) | binding [5] | Structure (SMILES)
0.02–0.01 | 0 ± 0.5 | 6.8 | 0 ± 0.5 | – | – | – | COC(=O)[C@H](Cc1c[nH]c2ccccc12)NC(=O)C(Cc1cn(COC(=O)C(C)(C)C)nn1)NC(=O)CCCc1ccc2ccc3cccc4ccc1c2c34 (stereo partly shown)
– | – | – | 0 ± 0.5 | weak | – | – | COC(=O)[C@H](Cc1c[nH]c2ccccc12)NC(=O)C(Cc1cn(COC(=O)C(C)(C)C)nn1)NC(=O)[C@@H](N)Cc1c[nH]c2ccccc12 (stereo partly shown)
0.02–0.01 | – | – | 0 ± 0.5 | – | 6.6 | – | COC(=O)[C@H](Cc1c[nH]c2ccccc12)NC(=O)C(Cc1cn(COC(=O)C(C)(C)C)nn1)NC(=O)c1ccc2ccc3cccc4ccc1c2c34 (stereo partly shown)
– | – | – | – | – | – | yes | N=C(N)c1ccc(-c2cc3ccc(C(=N)N)cc3[nH]2)cc1
